Where two headings read alike, the source gives them in different places.
How the values were obtained:
[1] = biological target: Human CypD (Homo sapiens, UniProt P30405); assay: Cyclophilin peptidyl-prolyl isomerase functional assay (PPIase), cyclophilin D; type: biochemical
[2] = biological target: recombinant Calcineurin (CaN) (Homo sapiens, UniProt P63098+Q08209); assay: Calcineurin phosphatase inhibition assay without cyclophilin A; type: biochemical
[3] = test system: permeabilized HepG2; assay: Calcium retention capacity (CRC) assay in permeabilized HepG2; type: cell-based; details: Homo sapiens
[4] = biological target: Human CypA (Homo sapiens, UniProt P62937); assay: Cyclophilin peptidyl-prolyl isomerase functional assay (PPIase), cyclophilin A; type: biochemical; details: human recombinant enzyme, 10° C.; read-out: Inhibition (Ki, nM) Human CypA
Sequence of Human CypA (P62937 whole entry): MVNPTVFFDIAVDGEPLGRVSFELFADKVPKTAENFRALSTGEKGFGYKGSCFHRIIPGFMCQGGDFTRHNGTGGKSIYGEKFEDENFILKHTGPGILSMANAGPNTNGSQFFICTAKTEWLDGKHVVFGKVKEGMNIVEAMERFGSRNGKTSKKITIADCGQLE

[5] = biological target: recombinant Calcineurin (CaN) + CypA (Homo sapiens, UniProt P62937+P63098+Q08209); assay: Calcineurin phosphatase inhibition assay with cyclophilin A; type: biochemical; details: RII phosphopeptide substrate
Sequence of recombinant Calcineurin (CaN) + CypA (P62937 whole entry, other chains not shown): as the sequence (P62937 whole entry) above
Sequence of recombinant Calcineurin (CaN) + CypA (P63098 whole entry, other chains not shown): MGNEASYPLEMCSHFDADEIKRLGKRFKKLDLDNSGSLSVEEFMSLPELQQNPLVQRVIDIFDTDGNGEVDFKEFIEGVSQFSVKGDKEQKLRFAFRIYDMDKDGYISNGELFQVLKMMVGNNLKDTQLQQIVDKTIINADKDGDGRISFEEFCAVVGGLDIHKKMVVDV

[6] = human recombinant enzyme, 10° C., read-out: Inhibition (Ki, nM) Human CypD
[7] = without cyclophilin A, RII phosphopeptide substrate, read-out: Calcineurin Inhibition (IC50, nM) −CypA
[8] = permeabilized HepG2, Calcium Green 5N, read-out: Calcium Retention Capacity EC50

Sequence of Human CypD (P30405 30-207): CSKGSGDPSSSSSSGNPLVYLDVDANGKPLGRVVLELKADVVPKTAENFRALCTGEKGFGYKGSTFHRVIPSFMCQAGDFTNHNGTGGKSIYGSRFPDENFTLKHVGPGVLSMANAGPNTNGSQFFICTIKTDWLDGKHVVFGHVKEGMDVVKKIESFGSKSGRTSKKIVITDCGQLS
Sequence of recombinant Calcineurin (CaN) (P63098 whole entry, other chains not shown): as the sequence (P63098 whole entry, other chains not shown) above

Row | Structure (SMILES) | Ki [1, 6] [nM] | IC50 [2, 7] [nM] | EC50 [3, 8] [nM] | Ki [4] [nM] | IC50 [5] [nM] | Ki [1] [nM] | IC50 [2] [nM] | EC50 ([3]; HepG2, read-out: Calcium Retention Capacity EC50 (nM)) [nM]
1 | CC[C@@H]1NC(=O)[C@H]([C@H](O)[C@H](C)C/C=C/c2ccc(C(F)(F)F)cc2)N(C)C(=O)[C@H](C(C)C)N(C)C(=O)[C@H](CC(C)C)N(C)C(=O)[C@H](CC(C)C)N(C)C(=O)[C@@H](C)NC(=O)[C@H](C)NC(=O)[C@H](CC(C)C)N(C)C(=O)[C@H](C(C)C)NC(=O)[C@H](CC(C)C)N(C)C(=O)C(OCCN(C)C)N(C)C1=O (some centres unmarked) [Compound 3] | 9.4 | > 10000 | 1370 |  |  |  |  | 
2 | CC[C@@H]1NC(=O)[C@H]([C@H](O)[C@H](C)C/C=C/c2ccc(C)cc2)N(C)C(=O)[C@H](C(C)C)N(C)C(=O)[C@H](CC(C)C)N(C)C(=O)[C@H](CC(C)C)N(C)C(=O)[C@@H](C)NC(=O)[C@H](C)NC(=O)[C@H](CC(C)C)N(C)C(=O)[C@H](C(C)C)NC(=O)[C@H](CC(C)C)N(C)C(=O)C(OCCN(C)C)N(C)C1=O (some centres unmarked) [Compound 2] |  |  |  |  |  | 11 | 3950 | 512

The next lines start with results.

Row | Ki [1, 6] [nM] | IC50 [2, 7] [nM] | EC50 [3, 8] [nM] | Ki [4] [nM] | IC50 [5] [nM] | Structure (SMILES) | Ki [1] [nM] | IC50 [2] [nM] | EC50 ([3]; HepG2, read-out: Calcium Retention Capacity EC50 (nM)) [nM]
3 | 11 | 1160 | 867 |  |  | CC[C@@H]1NC(=O)[C@H]([C@H](O)[C@H](C)C/C=C/c2cccs2)N(C)C(=O)[C@H](C(C)C)N(C)C(=O)[C@H](CC(C)C)N(C)C(=O)[C@H](CC(C)C)N(C)C(=O)[C@@H](C)NC(=O)[C@H](C)NC(=O)[C@H](CC(C)C)N(C)C(=O)[C@H](C(C)C)NC(=O)[C@H](CC(C)C)N(C)C(=O)C(OCCN(C)C)N(C)C1=O (some centres unmarked) [Compound 4] |  |  | 
4 | 8.4 | 2660 | 623 | 5.5 | 2430 | CC[C@@H]1NC(=O)[C@H]([C@H](O)[C@H](C)C/C=C/c2ccc(OC)cc2)N(C)C(=O)[C@H](C(C)C)N(C)C(=O)[C@H](CC(C)C)N(C)C(=O)[C@H](CC(C)C)N(C)C(=O)[C@@H](C)NC(=O)[C@H](C)NC(=O)[C@H](CC(C)C)N(C)C(=O)[C@H](C(C)C)NC(=O)[C@H](CC(C)C)N(C)C(=O)C(OCCN(C)C)N(C)C1=O (some centres unmarked) [Compound 5] |  |  | 
5 | 6.5 | > 10000 | 964 |  |  | CC[C@@H]1NC(=O)[C@H]([C@H](O)[C@H](C)C/C=C/c2ccc3ccccc3c2)N(C)C(=O)[C@H](C(C)C)N(C)C(=O)[C@H](CC(C)C)N(C)C(=O)[C@H](CC(C)C)N(C)C(=O)[C@@H](C)NC(=O)[C@H](C)NC(=O)[C@H](CC(C)C)N(C)C(=O)[C@H](C(C)C)NC(=O)[C@H](CC(C)C)N(C)C(=O)C(OCCN(C)C)N(C)C1=O (some centres unmarked) [Compound 6] |  |  | 

— patent US20230203099A1, “CYCLOPHILIN INHIBITORS AND USES THEREOF” (priority 2020, published 2023)
